Laboratory results from PMC11898565, “Perturbation of Pseudomonas aeruginosa peptidoglycan recycling by anti-folates and design of a dual-action inhibitor” (mBio, 2025).

Tests used:
NDM-1 = molecular target: T1, NDM-1 (Klebsiella pneumoniae, UniProt C7C422); assay: in vitro meropenem hydrolysis assay ([…] nm), […] enzyme, […] ZnSO4; type: biochemical
T1 construct: gene blaNDM-1

VIM-2 = molecular target: T2, VIM-2 (Pseudomonas aeruginosa, UniProt Q9K2N0); assay: as above; type: biochemical
T2 construct: gene blaVIM-2

T1 sequence (C7C422 29-270 limits assumed): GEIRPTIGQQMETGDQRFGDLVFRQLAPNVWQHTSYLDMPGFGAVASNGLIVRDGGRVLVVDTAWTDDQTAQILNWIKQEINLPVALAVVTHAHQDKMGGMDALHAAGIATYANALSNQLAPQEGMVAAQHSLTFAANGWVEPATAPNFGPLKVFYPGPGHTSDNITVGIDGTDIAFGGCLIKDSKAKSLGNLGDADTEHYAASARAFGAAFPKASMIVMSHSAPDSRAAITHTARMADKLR

SMILES: Nc1ccc(S(=O)(=O)Nc2scnc2C(=O)O)cc1 [MLLB-2201]
- IC50 (NDM-1): 1.8 µM
- IC50 (VIM-2): 14.5 µM
